Measurements reported in patent US7574340B2 (priority 2003, dated 2009).

Columns and labels:
BoNT/A LC [1] = molecular target: T1, BoNT/A LC (Clostridium botulinum, UniProt P0DPI0); assay: biochemical; type: biochemical
BoNT/A holotoxin = BoNT/A holotoxin (Clostridium botulinum, UniProt P0DPI0); settings: 3.3 μM; cited from earlier work
[2] = molecular target: BoNT serotype B light chain (BoNT/B LC) (Clostridium botulinum, UniProt P10844); type: biochemical
anthrax lethal factor = anthrax lethal factor (Bacillus anthracis, UniProt P15917); type: biochemical
BoNT/A LC [3] = molecular target: T1, BoNT/A LC; settings: cited from earlier work

T1 sequence (P0DPI0 2-448 limits assumed): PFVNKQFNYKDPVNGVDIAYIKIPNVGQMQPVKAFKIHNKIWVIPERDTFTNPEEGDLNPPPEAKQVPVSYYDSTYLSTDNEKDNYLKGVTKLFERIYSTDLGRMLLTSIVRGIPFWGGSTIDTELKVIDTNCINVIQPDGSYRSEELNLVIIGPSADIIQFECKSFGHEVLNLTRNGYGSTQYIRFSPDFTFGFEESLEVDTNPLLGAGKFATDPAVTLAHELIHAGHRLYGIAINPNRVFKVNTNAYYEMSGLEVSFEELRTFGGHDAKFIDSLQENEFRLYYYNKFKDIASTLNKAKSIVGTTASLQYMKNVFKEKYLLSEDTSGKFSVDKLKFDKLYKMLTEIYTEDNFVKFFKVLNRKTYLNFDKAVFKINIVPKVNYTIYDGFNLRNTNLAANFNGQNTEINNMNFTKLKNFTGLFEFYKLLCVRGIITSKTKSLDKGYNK
Sequence of BoNT serotype B light chain (BoNT/B LC) (P10844 2-441 limits assumed): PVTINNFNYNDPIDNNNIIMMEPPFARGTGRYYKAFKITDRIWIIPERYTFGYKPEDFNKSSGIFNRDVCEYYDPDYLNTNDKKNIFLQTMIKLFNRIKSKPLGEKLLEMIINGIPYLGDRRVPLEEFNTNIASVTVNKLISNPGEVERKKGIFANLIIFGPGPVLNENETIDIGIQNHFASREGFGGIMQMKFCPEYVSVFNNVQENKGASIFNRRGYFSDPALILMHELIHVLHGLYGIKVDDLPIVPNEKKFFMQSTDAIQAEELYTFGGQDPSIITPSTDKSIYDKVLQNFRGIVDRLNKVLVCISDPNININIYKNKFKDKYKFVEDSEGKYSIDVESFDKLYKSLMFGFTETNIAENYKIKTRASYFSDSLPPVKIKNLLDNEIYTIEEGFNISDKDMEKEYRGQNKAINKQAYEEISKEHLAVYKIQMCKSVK
Sequence of anthrax lethal factor (P15917 34-809 limits assumed): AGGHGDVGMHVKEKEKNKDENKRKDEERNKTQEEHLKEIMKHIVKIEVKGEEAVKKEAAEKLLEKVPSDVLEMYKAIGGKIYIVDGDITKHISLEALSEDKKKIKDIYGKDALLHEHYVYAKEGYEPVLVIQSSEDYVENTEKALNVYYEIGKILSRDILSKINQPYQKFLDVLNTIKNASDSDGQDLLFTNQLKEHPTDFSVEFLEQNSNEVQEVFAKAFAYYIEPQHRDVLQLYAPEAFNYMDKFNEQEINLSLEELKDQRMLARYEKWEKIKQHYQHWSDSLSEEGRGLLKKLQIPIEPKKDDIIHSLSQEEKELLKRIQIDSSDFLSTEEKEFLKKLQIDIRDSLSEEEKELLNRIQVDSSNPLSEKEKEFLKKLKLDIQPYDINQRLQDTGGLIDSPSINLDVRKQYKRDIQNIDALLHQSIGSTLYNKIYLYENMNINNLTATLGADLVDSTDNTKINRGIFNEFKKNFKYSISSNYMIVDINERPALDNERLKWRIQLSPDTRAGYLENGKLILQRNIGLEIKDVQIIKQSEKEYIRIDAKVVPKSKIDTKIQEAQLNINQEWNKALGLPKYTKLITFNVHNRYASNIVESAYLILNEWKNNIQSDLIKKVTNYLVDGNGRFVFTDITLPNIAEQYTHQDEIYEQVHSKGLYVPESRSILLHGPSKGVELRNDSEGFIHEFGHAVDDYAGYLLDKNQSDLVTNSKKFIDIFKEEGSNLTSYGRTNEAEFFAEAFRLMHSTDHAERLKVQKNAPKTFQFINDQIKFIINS
Sequence of BoNT/A holotoxin (P0DPI0 2-448 limits assumed): as the sequence (P0DPI0 2-448 limits assumed) above
Sequence of BoNT/A holotoxin (P0DPI0 449-1296 limits assumed): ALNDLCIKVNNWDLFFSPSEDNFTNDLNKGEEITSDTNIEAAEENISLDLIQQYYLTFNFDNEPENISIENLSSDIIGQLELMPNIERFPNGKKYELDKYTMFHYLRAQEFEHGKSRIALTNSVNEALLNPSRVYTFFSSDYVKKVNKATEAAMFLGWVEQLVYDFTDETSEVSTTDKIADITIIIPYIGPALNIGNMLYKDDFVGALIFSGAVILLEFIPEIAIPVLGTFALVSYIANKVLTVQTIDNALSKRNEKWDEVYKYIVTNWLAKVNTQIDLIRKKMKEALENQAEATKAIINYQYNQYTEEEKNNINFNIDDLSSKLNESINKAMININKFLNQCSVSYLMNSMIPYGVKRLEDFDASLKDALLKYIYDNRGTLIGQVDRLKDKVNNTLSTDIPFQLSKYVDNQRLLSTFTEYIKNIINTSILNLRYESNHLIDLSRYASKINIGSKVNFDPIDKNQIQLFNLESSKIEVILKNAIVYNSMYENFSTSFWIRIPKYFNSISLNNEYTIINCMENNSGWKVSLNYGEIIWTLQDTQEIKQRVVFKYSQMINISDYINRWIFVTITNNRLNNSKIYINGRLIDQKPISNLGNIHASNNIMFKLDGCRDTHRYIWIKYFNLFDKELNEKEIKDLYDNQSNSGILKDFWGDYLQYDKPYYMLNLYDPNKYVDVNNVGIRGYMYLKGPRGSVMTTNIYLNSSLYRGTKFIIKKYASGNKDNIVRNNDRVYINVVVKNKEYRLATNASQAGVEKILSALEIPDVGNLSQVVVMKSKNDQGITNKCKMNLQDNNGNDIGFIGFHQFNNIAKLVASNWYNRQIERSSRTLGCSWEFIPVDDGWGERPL

CCN(CC)CCCC(C)Nc1ccnc2cc(Cl)ccc12 (racemic) [Chloroquine (racemic), Chloroquine]
inhibition at 20 µM (BoNT/A LC [1]): 20%

CCN(CC)CCCC(C)Nc1c2ccc(Cl)cc2nc2ccc(OC)cc12 (racemic) [Quinacrine (racemic), Quinacrine]
delay of the time to about 50% muscle paralysis (over control) (BoNT/A holotoxin): at least 30%
inhibition at 20 µM (BoNT/A LC [1]): 30%

CCN(CC)Cc1cc(Nc2ccnc3cc(Cl)ccc23)ccc1O [Amodiaquine]
% Inhibition (BoNT/A LC [1]): 20%
inhibition at 20 µM (BoNT/A LC [1]): 30%

CCOc1ccc2c(ccc(/C=C/c3ccc4c(C)ccnc4c3O)[n+]2C)c1 [NSC 86372]
inhibition of BoNT/B LC protease activity (in words) [2]: inhibit
inhibition of anthrax lethal factor (in words) (anthrax lethal factor): inhibit
effect of addition of zinc on inhibition (BoNT/A LC [1]): immediately and quantitatively reversed inhibition
inhibition at 20 µM (BoNT/A LC [1]): 51%

O=C(O)c1c(I)c(I)c(I)c(I)c1C1c2ccc(O)cc2Oc2cc(O)ccc21 [NSC 119889]
inhibition at 20 µM (BoNT/A LC [1]): 56%

O=[N+]([O-])c1cc(Cc2cc([N+](=O)[O-])c3cccnc3c2O)c(O)c2ccccc12 [NSC 130796]
inhibition of BoNT/B LC protease activity (in words) [2]: inhibit
inhibition of anthrax lethal factor (in words) (anthrax lethal factor): inhibit
inhibition at 20 µM (BoNT/A LC [1]): 48%

Nc1c(/C=C/c2cc3cc(C4=NCCN4)ccc3o2)[nH]c2cc(C3=NCCN3)ccc12 [NSC 357756]
inhibition at 20 µM (BoNT/A LC [1]): 57%

Ic1ccc2nc3cc(Nc4ccc5c(c4)nc4ccc(I)cc4[n+]5-c4ccccc4)ccc3[n+](-c3ccccc3)c2c1 [NSC 402959]
inhibition at 20 µM (BoNT/A LC [1]): 40%

COc1cc(C)cc2c(-c3c(O)cc(O)c4c3C[C@@H](C)N[C@@H]4C)cc(-c3cc(-c4c(O)cc(O)c5c4C[C@@H](C)N[C@@H]5C)c4cc(C)cc(OC)c4c3O)c(O)c12 [NSC 661755, Michellamine B]
effect of added zinc on inhibition of BoNT/A LC (BoNT/A LC [1]): not affected by added zinc
inhibition at 20 µM (BoNT/A LC [1]): 62%

C[C@H](CS)C(=O)N1CCC[C@H]1C(=O)O [captopril]
BoNT/A LC inhibition (in words) (BoNT/A LC [3]): inhibited by mM concentrations

CCOC(=O)[C@H](CCc1ccccc1)N[C@@H](C)C(=O)N1CCC[C@H]1C(=O)O [enalapril]
BoNT/A LC inhibition (in words) (BoNT/A LC [3]): inhibited by mM concentrations

NCCCC[C@H](N[C@@H](CCc1ccccc1)C(=O)O)C(=O)N1CCC[C@H]1C(=O)O [lysinopril]
BoNT/A LC inhibition (in words) (BoNT/A LC [3]): inhibited by mM concentrations

[Ag+] [silver ion]
effect of addition of DTT on inhibition (BoNT/A LC [1]): immediately reversed inhibition
effect of zinc in assays on inhibition (BoNT/A LC [1]): no effect
inhibition of protease activity (BoNT/A LC [1]): about 100%

Quinidine
% Inhibition (BoNT/A LC [1]): 9 3%

Quinine
% Inhibition (BoNT/A LC [1]): 9 3%
